Assay results taken from patent US6506744B1, “Benzazepinone-derivatives” (Hoffmann-La Roche Inc., priority 1999, dated 2003).

Row | melting point | SMILES
1 | 126 °C | CN1C(=O)CN(CC(=O)NCCC(=O)O)C(=O)c2cc(NC(=N)N)ccc21.Cl
2 | 116 °C (dec.) | CN1C(=O)CN(CC(=O)NCCC(=O)O)C(=O)c2cc(NC(=O)NCc3ccccc3)ccc21 [Example 3, 3-[2-[7-(3-benzyl-ureido)-1-methyl-2,5-dioxo-1,2,3,5-tetrahydro-benzo[e][1,4]diazepin-4-yl]-acetylamino]-propionic acid]
3 | 138 to 140 °C | O=C(O)C[C@@H](NC(=O)CN1C[C@H](c2ccccc2)Oc2ccc(NC(=O)NCc3ccccc3)cc2C1=O)c1ccccc1 [Example 21, (R,S)-3-{2-[7-(3-benzyl-ureido)-5-oxo-2-phenyl-2,3-dihydro-5H-benzo[f][1,4]oxazepin-4-yl]-acetylamino}-3-phenyl-propionic acid]
